According to publication PMC13357423 (Frontiers in Microbiology, 2026):
In brackets after ≈: the same amount, converted by molar mass. Entries after “also recorded” stand apart in the source; their conditions may differ. Read-outs that look alike come from different tables or passages of the source.

Columns and labels:
M. tuberculosis = tested on: M. tuberculosis; parameters: method as in Lounis et al. (2016); details: polypropylene plates in comparison with polystyrene; ref Lounis et al. (2016); cited from earlier work
Mtb Rv0678 RAVs = tested on: Mtb Rv0678 RAVs; parameters: method as in Sonnenkalb et al., 2023; Villellas et al., 2017; details: Rv0678 RAVs in baseline isolates of MDR-TB patients; ref Sonnenkalb et al., 2023; Villellas et al., 2017; cited from earlier work
Mtb H37Rv [1] = assay: microbe, parasite or virus in culture; assay type: cell-based; details: Mycobacterium tuberculosis, read-out: MIC BDQ values in six carbon sources
[2] = Effect of tyloxapol on TBAJ-587 recovery in ST broth without bacteria; assay type: physicochemical; details: ST broth with vs without tyloxapol, no bacteria, polystyrene flasks, 28 days
Experimental: A low (0.16 mg/L) and a high concentration (1.6 mg/L) were tested and samples taken and quantified at 0, 1, 10 and 28 days after compound addition. Parallel conditions with propranolol (2 μM and 0.2 μm) were included as a drug control; two time-points were sampled for quantification at days 0 and 28 after compound addition. All 648 samples were measured in technical duplicates and verapamil was used as internal standard.

[3] = tested on: regrowth TKA isolates (Mtb H37Rv); assay: microbe, parasite or virus in culture; assay type: cell-based, Mycobacterium tuberculosis; details: for MIC: Mycobacterium tuberculosis
Mtb H37Rv [4] = assay: Dose response time kill assays (TKA), CFU enumeration; assay type: cell-based, Mycobacterium tuberculosis
[5] = concentrations equal or higher than 5x MIC

SMILES | increase in the MIC (M. tuberculosis) [fold] | increase in MIC (Mtb Rv0678 RAVs) | MIC (Mtb H37Rv [1]) [µg/mL] | effect of 0.05% tyloxapol on recovery [2] | MIC increase compared to the wild-type baseline [3] [fold] | MIC ([3]; H37RV) [µg/mL] | MIC ([3]; read-out: MIC values for TBAJ-587, all regrowth isolates) [µg/mL] | effect in TKA (Mtb H37Rv [4]; 1x MIC and 2x MIC) | bacterial regrowth (Mtb H37Rv [4]; 1x MIC and 2x MIC, day 28) | bacterial regrowth after 28 days of treatment (Mtb H37Rv [4]; [5]) | time to cleared cultures (bacterial counts under the limit of quantification) (Mtb H37Rv [4]; [5]) [days] | effect in TKA (Mtb H37Rv [4]; concentrations equal to and above 5x MIC)
COc1nc2ccc(Br)cc2cc1[C@@H](c1ccccc1)[C@@](O)(CCN(C)C)c1cccc2ccccc12 [BDQ, bedaquiline] | 4 | 2–8 fold | 0.063 to 0.25 (≈ 0.113 to 0.45 µM) | – | – | – | – | – | – | – | – | –
CC(C)NCC(O)COc1cccc2ccccc12 (stereo not shown) [Propranolol, propranolol, reference compound] | – | – | – | did not affect its recovery | – | – | – | – | – | – | – | –
COc1cc([C@](O)(CCN(C)C)[C@@H](c2cc3cc(Br)ccc3nc2OC)c2cccc(OC)c2F)cc(OC)n1 [TBAJ-587] | – | – | – | higher TBAJ-587 recovery | 4 | 0.125 (≈ 0.203 µM) | 0.125 to 0.25 (≈ 0.203 to 0.407 µM) | bacteriostatic effect | resumed growth after 28 days; also recorded: bacterial regrowth by day 28 | without bacterial regrowth | ≤ 7 | bactericidal effect
